Experimental data as given in patent publication US20020156236A1, “Binding sites for phosphotyrosine binding domains” (priority 1995, published 2002).
Where a SMILES comes first, the peptide text is derived from it.

Biological target: T1, PTB domain/c-erbB2 binding (GST-PTB domain of SHC; c-erbB2 from SKBR3 lysate) (Homo sapiens, UniProt P29353)
T1 construct: GST-PTB domain fusion proteins were expressed from recombinant baculovirus in sf9 cells; made in house; host or cells: Sf9 cells (recombinant baculovirus) for GST-PTB; c-erbB2 endogenous in SKBR3 cell lysate
T1 sequence (P29353 156-341): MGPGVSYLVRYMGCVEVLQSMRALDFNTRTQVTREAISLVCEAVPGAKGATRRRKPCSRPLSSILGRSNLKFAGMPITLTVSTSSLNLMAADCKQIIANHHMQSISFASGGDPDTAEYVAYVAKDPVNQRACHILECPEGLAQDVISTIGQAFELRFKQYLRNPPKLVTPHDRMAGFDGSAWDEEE
Assay: biochemical
Settings: Inhibition (relative inhibition scale of IC50)

Row | SMILES | IC50
1 | CC(C)C[C@H](NC(=O)[C@H](CC(N)=O)NC(=O)[C@H](CC(=O)O)NC(=O)[C@H](Cc1ccccc1)NC(=O)[C@H](C)NC(=O)[C@@H]1CCCN1C(=O)[C@H](CO)NC(=O)[C@H](Cc1ccccc1)NC(=O)[C@H](C)NC(=O)[C@@H]1CCCN1)C(=O)N[C@@H](Cc1ccc(O)cc1)C(=O)N[C@@H](Cc1ccc(OP(=O)(O)O)cc1)C(=O)N[C@@H](Cc1c[nH]c2ccccc12)C(=O)N[C@@H](CC(=O)O)C(=O)N[C@@H](CC(=O)O)C(=O)N[C@@H](CC(N)=O)C(=O)N[C@@H](CO)C(=O)N[C@@H](CO)C(=O)N[C@@H](CCC(=O)O)C(=O)N[C@@H](CCC(N)=O)C(=O)NCC(=O)O [PAFSPAFDNLY (pY) WDDNSSEQG, PAFSPAFDNLY(pY)WDDNSSEQG] (HELM PEPTIDE1{P.A.F.S.P.A.F.D.N.L.Y.[O=C([C@H](Cc1ccc(OP(=O)(O)O)cc1)N[*:1])[*:2]].W.D.D.N.S.S.E.Q.G}$$$$V2.0) | 0.5 to 5 µM
2 | CC(C)C[C@H](NC(=O)[C@H](CC(N)=O)NC(=O)[C@H](CC(=O)O)NC(=O)[C@H](Cc1ccccc1)NC(=O)[C@H](C)NC(=O)[C@@H]1CCCN1C(=O)[C@H](CO)NC(=O)[C@H](Cc1ccccc1)NC(=O)[C@H](C)NC(=O)[C@@H]1CCCN1)C(=O)N[C@@H](Cc1ccc(O)cc1)C(=O)N[C@@H](Cc1ccc(OP(=O)(O)O)cc1)C(=O)N[C@@H](Cc1c[nH]c2ccccc12)C(=O)N[C@@H](CC(=O)O)C(=O)N[C@@H](CC(N)=O)C(=O)N[C@@H](CC(N)=O)C(=O)N[C@@H](CO)C(=O)N[C@@H](CO)C(=O)N[C@@H](CCC(=O)O)C(=O)N[C@@H](CCC(N)=O)C(=O)NCC(=O)O [PAFSPAFDNLY (pY) WDNNSSEQG, PAFSPAFDNLY(pY)WDNNSSEQG] (HELM PEPTIDE1{P.A.F.S.P.A.F.D.N.L.Y.[O=C([C@H](Cc1ccc(OP(=O)(O)O)cc1)N[*:1])[*:2]].W.D.N.N.S.S.E.Q.G}$$$$V2.0) | 0.5 to 5 µM
3 | CC(C)C[C@H](NC(=O)[C@H](CC(N)=O)NC(=O)[C@H](CC(=O)O)NC(=O)[C@H](Cc1ccccc1)NC(=O)[C@H](C)NC(=O)[C@@H]1CCCN1C(=O)[C@H](CO)NC(=O)[C@H](Cc1ccccc1)NC(=O)[C@H](C)NC(=O)[C@@H]1CCCN1)C(=O)N[C@@H](Cc1ccc(O)cc1)C(=O)N[C@@H](Cc1ccc(OP(=O)(O)O)cc1)C(=O)N[C@@H](Cc1c[nH]c2ccccc12)C(=O)N[C@@H](CC(=O)O)C(=O)N[C@@H](CCC(N)=O)C(=O)N[C@@H](C)C(=O)N[C@@H](CO)C(=O)N[C@@H](CO)C(=O)N[C@@H](CCC(=O)O)C(=O)N[C@@H](CCC(N)=O)C(=O)NCC(=O)O [PAFSPAFDNLY (pY) WDQASSEQG, PAFSPAFDNLY(pY)WDQASSEQG] (HELM PEPTIDE1{P.A.F.S.P.A.F.D.N.L.Y.[O=C([C@H](Cc1ccc(OP(=O)(O)O)cc1)N[*:1])[*:2]].W.D.Q.A.S.S.E.Q.G}$$$$V2.0) | 0.5 to 5 µM
4 | CC(C)C[C@H](NC(=O)[C@H](CC(N)=O)NC(=O)[C@H](CC(=O)O)NC(=O)[C@H](Cc1ccccc1)NC(=O)[C@H](C)NC(=O)[C@@H]1CCCN1C(=O)[C@H](CO)NC(=O)[C@H](Cc1ccccc1)NC(=O)[C@H](C)NC(=O)[C@@H]1CCCN1)C(=O)N[C@@H](Cc1ccc(O)cc1)C(=O)N[C@@H](Cc1ccc(OP(=O)(O)O)cc1)C(=O)N[C@@H](Cc1c[nH]c2ccccc12)C(=O)N[C@@H](CC(=O)O)C(=O)N[C@@H](CCC(N)=O)C(=O)N[C@@H](CC(N)=O)C(=O)N[C@@H](C)C(=O)N[C@@H](CO)C(=O)N[C@@H](CCC(=O)O)C(=O)N[C@@H](CCC(N)=O)C(=O)NCC(=O)O [PAFSPAFDNLY (pY) WDQNASEQG, PAFSPAFDNLY(pY)WDQNASEQG] (HELM PEPTIDE1{P.A.F.S.P.A.F.D.N.L.Y.[O=C([C@H](Cc1ccc(OP(=O)(O)O)cc1)N[*:1])[*:2]].W.D.Q.N.A.S.E.Q.G}$$$$V2.0) | 0.5 to 5 µM
5 | CC(C)C[C@H](NC(=O)[C@H](CCC(N)=O)NC(=O)[C@H](CC(=O)O)NC(=O)[C@H](Cc1ccccc1)NC(=O)[C@H](C)NC(=O)[C@@H]1CCCN1C(=O)[C@H](CO)NC(=O)[C@H](Cc1ccccc1)NC(=O)[C@H](C)NC(=O)[C@@H]1CCCN1)C(=O)N[C@@H](Cc1ccc(O)cc1)C(=O)N[C@@H](Cc1ccc(OP(=O)(O)O)cc1)C(=O)N[C@@H](Cc1c[nH]c2ccccc12)C(=O)N[C@@H](CC(=O)O)C(=O)N[C@@H](CCC(N)=O)C(=O)N[C@@H](CC(N)=O)C(=O)N[C@@H](CO)C(=O)N[C@@H](CO)C(=O)N[C@@H](CCC(=O)O)C(=O)N[C@@H](CCC(N)=O)C(=O)NCC(=O)O [PAFSPAFDQLY (pY) WDQNSSEQG] (HELM PEPTIDE1{P.A.F.S.P.A.F.D.Q.L.Y.[O=C([C@H](Cc1ccc(OP(=O)(O)O)cc1)N[*:1])[*:2]].W.D.Q.N.S.S.E.Q.G}$$$$V2.0) | > 50 µM
6 | CC(C)C[C@H](NC(=O)[C@H](CC(N)=O)NC(=O)[C@H](CO)NC(=O)[C@H](Cc1ccccc1)NC(=O)[C@H](C)NC(=O)[C@@H]1CCCN1C(=O)[C@H](CO)NC(=O)[C@H](Cc1ccccc1)NC(=O)[C@H](C)NC(=O)[C@@H]1CCCN1)C(=O)N[C@@H](Cc1ccc(O)cc1)C(=O)N[C@@H](Cc1ccc(OP(=O)(O)O)cc1)C(=O)N[C@@H](Cc1c[nH]c2ccccc12)C(=O)N[C@@H](CC(=O)O)C(=O)N[C@@H](CCC(N)=O)C(=O)N[C@@H](CC(N)=O)C(=O)N[C@@H](CO)C(=O)N[C@@H](CO)C(=O)N[C@@H](CCC(=O)O)C(=O)N[C@@H](CCC(N)=O)C(=O)NCC(=O)O [PAFSPAFSNLY (pY) WDQNSSEQG, PAFSPAFSNLY(pY)WDQNSSEQG] (HELM PEPTIDE1{P.A.F.S.P.A.F.S.N.L.Y.[O=C([C@H](Cc1ccc(OP(=O)(O)O)cc1)N[*:1])[*:2]].W.D.Q.N.S.S.E.Q.G}$$$$V2.0) | 5 to 50 µM
